Data: patent US10889554B2, “Excimer forming compounds” (THE GOVERNING COUNCIL OF THE UNIVERSITY OF TORONTO, priority 2013, dated 2021)

Experiments:
pYpY peptide = assay: Detection of pY and pYpY peptides with non-pyrene excimer forming derivatives; assay type: binding; conditions: for excimer emission peak in response to pYpY peptide in fluorescence emission spectra / peak when pYpY spectra are divided by those of pY or buffer control: 250 μM Zn^2+ triflate complexes, 125 μM peptide, irradiated at 290 nm; for detection limit of pYpY peptide, selectively over pY peptide: 250 μM compound in complex with Zn^2+ (triflate salt), pH 7.5 50 mM HEPES, 10% DMSO
Protocol: Non-pyrene excimer forming derivatives (compounds 4-7) were synthesized and assessed for their ability to sense proximally phosphorylated peptides. All experiments for these derivatives were performed in pH 7.5 50 mM HEPES, 10% DMSO. 125 μM pY and pYpY peptides were combined with 250 μM of compounds 4, 5 and 6 (Zn^2+ triflate complexes), or buffer as background control, and the solution was irradiated at 290 nm and fluorescence emission scan was recorded. […] These peaks indicate that the spike in response to the addition of pYpY corresponds to excimer formation, since 420 nm region corresponds to a roughly 100 nm shift from the monomer emission maximum (approximately at 330 nm).
pY and pYpY peptides were titrated into 250 μM of compound 4 in complex with Zn^2+ (triflate salt) in pH 7.5 50 mM HEPES, 10% DMSO. […] Time-resolved experiments were also conducted, where the delay time prior to acquisition of fluorescence was varied (0, 5, 10, and 15 μs; FIG. 21). In this case, the concentration of compound 4 in complex with Zn^2+ (triflate salt) was constant at 40 μM.
pY and pYpY peptides were also titrated into 250 μM of compound 5 in complex with Zn^2+ (triflate salt) in pH 7.5, 50 mM HEPES, 10% DMSO. The fluorescence emission spectra (FIG. 23) indicate a pYpY-selective enhancement in the excimer region of the fluorophore.

β-casein = target: T1, β-casein (Bos taurus, UniProt P02666); assay: On-gel detection of proximally phosphorylated protein using GaCl3 complexes; assay type: binding
T1 construct: purchased Sigma Aldrich C6905-250MG
T1 sequence (P02666 16-224): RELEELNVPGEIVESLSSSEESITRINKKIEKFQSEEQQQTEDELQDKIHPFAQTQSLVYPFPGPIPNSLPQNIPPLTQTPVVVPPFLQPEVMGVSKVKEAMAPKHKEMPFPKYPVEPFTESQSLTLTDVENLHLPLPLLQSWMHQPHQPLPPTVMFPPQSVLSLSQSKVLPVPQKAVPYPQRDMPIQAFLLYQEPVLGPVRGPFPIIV
Protocol: (§1) Compound 8 was dissolved in 50 mM NaOAc buffer, pH 4.5, 50 mM NaCl, 10% DMSO and combined with 80, 160 or and 240 μM GaCl3 solutions. Each gel contained 4 lanes with equal amounts of BSA, ovalbumin (Ova), β-casein (β-cas) and lysozyme (Lyso) in each lane (left to right: 1, 0.5, 0.25 and 0.125 μg per protein per lane) (see FIG. 37). Gels were stained for 1 h with the sensor solution. Gels were first de-stained with 50 mM NaOAc buffer pH 4.5 for 2 h and then with 50 mM NaOAc buffer pH 4.0 20% acetonitrile for 40 h.
(§2) Compound 8 was dissolved in 100 mM NaOAc buffer, pH 4.5, 150 mM NaCl, 20% propylene glycol and combined with 10 and 15 μM GaCl3 solutions. Each gel contained 4 lanes with equal amounts of BSA, ovalbumin (Ova), β-casein (β-cas) and lysozyme (Lyso) in each lane (FIG. 40) left to right: 1, 0.5, 0.25 and 0.125 μg per protein per lane). Gels were stained for 1.5 h with the sensor solution. Destaining was performed for variable time (specified at the top) with 50 mM NaOAc, pH 4.0, 20% acetonitrile. Gels were rinsed with MiliQ water for 5 min prior to imaging. Images were acquired using ChemiDoc MP, using a 530 nm emission filter and UV trans excitation.
as §1, with “Compound 2” for “Compound 8”, “lane) (FIG. 42).” for “lane) (see FIG. 37).”, “h. […] However with the increased destaining time the intensity of β-casein band relative to other proteins was increasing, resulting in a 6.7-fold higher intensity over the distally phosphorylated protein ovalbumin. Lane containing 1 μg of each protein was analyzed (FIG. 43).” for “h.”
as §2, with “2” for “8”, “45)” for “40)”, “acetonitrile (see FIGS. 45 and 46).” for “acetonitrile.”

[1] = system: proximally phosphorylated peptides; assay: Detection of proximally phosphorylated peptides in aqueous solution (384 well plate, emission 476 nm); assay type: binding; conditions: Zn^2+ (triflate salt) complexes; pH 7.5, 50 mM HEPES, 25 mM NaCl, 10% propylene glycol
Protocol: In one example 40 μM of compound 1 pre-metallated with zinc(II) triflate (referred to as “Zn^2+ pre-metallation” in FIG. 13; procedure described in example) was titrated with 80-0.04 μM of pY and pYpY peptides in 50 mM HEPES pH 7.5, 5% DMSO. In another example, 40 μM of compound 1 was dissolved in 50 mM HEPES pH 7.5, 5% DMSO, which contained 40 μM of zinc(II) triflate (referred to as “in situ Zn^2+ metallation” in FIG. 13) and was titrated with 80-0.04 μM of pY and pYpY peptides. Fluorescence measurements were performed as described in Example 2.
(§3) Various conditions for the detection of proximally phosphorylated peptides and proteins in aqueous solution are shown in Table 1. For the screens, analytes (peptides) were dissolved in a specific buffer at various concentrations (normally 100 μM to 40 nM), and combined with 40 μM of compound 1 in complex with Zn^2+ (triflate salt) dissolved in the same buffer on a 384 well flat bottom black plate. The mixture was incubated for 20 minutes and fluorescence emission intensity at 476 nm (10-20 nm bandwidth) was measured using a Tecan M1000 microplate reader, upon excitation at 350 nm (5 nm bandwidth) at 400 Hz. The different conditions tested were assessed based on the ratios of signal intensity of positive to negative control analytes and signal intensity in general.
Peptides containing two phosphotyrosine residues, spaced by 2-5 alanine residues, were titrated into 40 μM solution of compound 1 in complex with Zn^2+ (triflate salt) (pH 7.5 50 mM HEPES, 10% propylene, 25 mM NaCl) from 80 μM to 40 nM (FIG. 16). Y-axis is Δ Fluorescence Intensity as defined by the formula in example 2.
Using the same methods as described in Example 6, Zn^2+ (triflate salt) complexes of compounds 1, compound 9, compound 15, compound 14 were tested in pH 7.5, 50 mM HEPES, 25 mM NaCl, 10% propylene glycol.
Using the same methods as described in Example 6, Zn^2+ (triflate salt) complexes of compound 1 and compound 12 were tested in pH 7.5, 50 mM HEPES, 5% DMSO.

[2] = system: proximally phosphorylated proteins (α-casein, β-casein and D-α-casein); assay: In-solution detection of proteins; assay type: binding, Bos taurus; conditions: Zn^2+ (triflate salt) complexes; pH 7.5, 50 mM HEPES, 75 mM NaCl, 20% DMSO
Description: Non-phosphorylated (BSA and lysozyme) and distally phosphorylated negative control proteins (ovalbumin) were used in detection methods for in-solution, on gel and on blot applications. Dephosphorylated α-casein (D-α-casein), β-casein and α-casein served as proximally phosphorylated positive controls (see Table 2). The phosphosites presented in Table 2 were obtained from the PhosphoSitePlus database or a UniProt database.
as §3, with “proteins” for “peptides”, “3. Proteins” for “1. For the screens, analytes (peptides)”, “a” for “a specific”, “general. Among the parameters assessed in this study and using these specific control proteins, the following conditions were selected for proteins studies: pH 5.5 50 mM NaOAc, 50 mM NaCl, 5% DMSO (see FIG. 27). […] Depending on the number of proximally di-phosphorylated sites, lower detection limits could be achieved by using lower concentration of a sensor.” for “general.”
Using same methods as described in Example 1.1c, Zn^2+ (triflate salt) complexes of compounds 1 (top left), compound 9 (top right), compound 15 (middle left), and compound 14 (middle right) were tested in pH 7.5, 50 mM HEPES, 75 mM NaCl, 20% DMSO (see FIG. 28).
Using same methods as described in Example 14, 40 and 20 μM of Zn^2+ (triflate salt) complexes of compound 1 (top) and compound 12 (bottom) (FIG. 29), were tested in pH 7.5, 50 mM HEPES, 5% DMSO.
Using same methods as described above, 60, 40, 20 and 10 μM of Zn^2+ (triflate salt) complexed with compound 12 (FIG. 30), were titrated with 80-0.04 μM of proteins in pH 7.5, 50 mM HEPES, 5% DMSO.

Row | melting point | Structure (SMILES) | excimer emission peak in response to pYpY peptide in fluorescence emission spectra (pYpY peptide) | efficiency at detecting the proximally phosphorylated proteins [2] | other results
1 | 75 to 79 °C | O=C(Cc1ccc2ccc3cccc4ccc1c2c34)N1CCNCCNCCNCC1 | – | – | –
2 | 83 to 86 °C | O=C(CCCc1ccc2ccc3cccc4ccc1c2c34)N1CCNCCNCCNCC1 | – | – | –
3 | 55 to 60 °C | c1cc2ccc3ccc(CCCCOCc4cc(CN5CCNCCNCCNCC5)cc(CN5CCNCCNCCNCC5)c4)c4ccc(c1)c2c34 | – | – | –
4 | – | c1ccc2c(CN3CCNCCNCCNCC3)cccc2c1 [compound 4, 1-(naphthalen-1-ylmethyl)-1,4,7,10-tetraazacyclododecane] | No distinct peak | – | peak when pYpY spectra are divided by those of pY or buffer control (pYpY peptide): distinct peak in the 420 nm region; detection limit of pYpY peptide, selectively over pY peptide (pYpY peptide): single-digit; signal selectivity towards pYpY with 15 μs delay time (pYpY peptide; time-resolved, 40 μM compound in complex with Zn^2+): retained
5 | – | c1ccc2cc(CN3CCNCCNCCNCC3)ccc2c1 [compound 5, 1-(naphthalen-2-ylmethyl)-1,4,7,10-tetraazacyclododecane] | No distinct peak | – | peak when pYpY spectra are divided by those of pY or buffer control (pYpY peptide): distinct peak in the 420 nm region; detection limit of pYpY peptide, selectively over pY peptide (pYpY peptide): single-digit
6 | – | c1ccc2c(c1)cc(CN1CCNCCNCCNCC1)c1ccccc12 [compound 6, 1-(phenanthren-9-ylmethyl)-1,4,7,10-tetraazacyclododecane] | No distinct peak | – | –
7 | – | O=C(O)CN(CC(=O)O)c1ccccc1OCCOc1cc(NC(=O)c2ccc3ccc4cccc5ccc2c3c45)ccc1N(CC(=O)O)CC(=O)O [compound 8, 2,2′-((2-(2-(2-(bis(carboxymethyl)amino)-5-(pyrene-1-carboxamido)phenoxy)ethoxy)phenyl)azanediyl)diacetic acid] | – | – | selectivity for β-casein after 2 h destaining (β-casein; 80 μM compound, 1:1 GaCl3, stained 1 h): improved; β-casein over distally phosphorylated ovalbumin (β-casein; 80 μM compound, 1:1 GaCl3, stained 1 h, 40 h destaining, 1 μg per protein): 4.5 fold; selectivity for β-casein with more than 1:1 equivalent of compound:GaCl3 (β-casein; 50 mM NaOAc pH 4.5, 50 mM NaCl, 10% DMSO, 160 or 240 μM GaCl3): did not result in good selectivity; selective staining for β-casein, no destaining (β-casein; 100 mM NaOAc pH 4.5, 150 mM NaCl, 20% propylene glycol, 1:1 and 1:1.5 compound:GaCl3, stained 1.5 h): did not result in selective staining; staining of β-casein band following 16 h destain (β-casein; 100 mM NaOAc pH 4.5, 150 mM NaCl, 20% propylene glycol, destain 50 mM NaOAc, pH 4.0, 20% acetonitrile): most prominently stained band
8 | – | c1cc2ccc3ccc(CCCCN4CCNCCNCCNCC4)c4ccc(c1)c2c34 [compound 9, 1-(4-(pyren-1-yl)butyl)-1,4,7,10-tetraazacyclododecane] | – | comparable efficiency | sensitivity for peptides in which the two phosphorylated tyrosine residues are more spaced out, vs compound 1 [1]: increased

Row | Structure (SMILES) | melting point | excimer emission peak in response to pYpY peptide in fluorescence emission spectra (pYpY peptide) | efficiency at detecting the proximally phosphorylated proteins [2] | other results
9 | c1ccc(CN(Cc2ccccn2)Cc2ccc3ccc4cccc5ccc2c3c45)nc1 [compound 14, 1-(pyren-1-yl)-N,N-bis(pyridin-2-ylmethyl)methanamine] | 108 to 112 °C | – | comparable efficiency | –
10 | c1ccc(CN(CCCCc2ccc3ccc4cccc5ccc2c3c45)Cc2ccccn2)nc1 [compound 15, 4-(pyren-1-yl)-N,N-bis(pyridin-2-ylmethyl)butan-1-amine] | 61 to 62 °C | – | comparable efficiency | –
